Experiments:
[1] = 101.33 kPa, Liquid, Capillary tube (Ostwald / Ubbelohde) method
[2] = xn = mol fraction of the nth substance listed; conditions: 101 kPa, Liquid, Capillary tube (Ostwald / Ubbelohde) method

CCC(C)CC [3-methylpentane]
[1]
Conditions | kinematic viscosity [m2/s]
283.15 K | 4.928e-07
298.15 K | 4.366e-07
313.15 K | 3.881e-07

COC(C)(C)C [2-methoxy-2-methylpropane] + CCCCCCC
kinematic viscosity [m2/s], [2]
Conditions | 283.15 K | 298.15 K | 313.15 K
x1 = 0.0431 | 6.606e-07 | 5.683e-07 | 4.926e-07
x1 = 0.0987 | 6.512e-07 | 5.599e-07 | 4.862e-07
x1 = 0.1892 | 6.353e-07 | 5.461e-07 | 4.767e-07
x1 = 0.2958 | 6.168e-07 | 5.3e-07 | 4.658e-07
x1 = 0.3844 | 6.03e-07 | 5.169e-07 | 4.569e-07
x1 = 0.4986 | 5.845e-07 | 5.012e-07 | 4.454e-07
x1 = 0.6007 | 5.7e-07 | 4.881e-07 | 4.347e-07
x1 = 0.6999 | 5.567e-07 | 4.777e-07 | 4.246e-07
x1 = 0.7998 | 5.421e-07 | 4.68e-07 | 4.144e-07
x1 = 0.8997 | 5.298e-07 | 4.604e-07 | 4.047e-07
x1 = 0.9499 | 5.241e-07 | 4.566e-07 | 4.004e-07

COC(C)(C)C [2-methoxy-2-methylpropane] + CCC(C)CC
[2], x1 = 1
Conditions | kinematic viscosity [m2/s]
283.15 K | 5.191e-07
298.15 K | 4.529e-07
313.15 K | 3.961e-07

CC(C)OC(C)C [diisopropyl ether] + CCCCCCC
kinematic viscosity [m2/s], [2]
Conditions | 283.15 K | 298.15 K | 313.15 K
x1 = 0.0508 | 6.578e-07 | 5.658e-07 | 4.91e-07
x1 = 0.1002 | 6.473e-07 | 5.567e-07 | 4.831e-07
x1 = 0.1986 | 6.265e-07 | 5.387e-07 | 4.719e-07
x1 = 0.2973 | 6.068e-07 | 5.218e-07 | 4.61e-07
x1 = 0.3992 | 5.88e-07 | 5.055e-07 | 4.498e-07
x1 = 0.4991 | 5.693e-07 | 4.9e-07 | 4.385e-07
x1 = 0.5979 | 5.533e-07 | 4.779e-07 | 4.273e-07
x1 = 0.7009 | 5.372e-07 | 4.679e-07 | 4.166e-07
x1 = 0.8008 | 5.215e-07 | 4.588e-07 | 4.058e-07
x1 = 0.8954 | 5.091e-07 | 4.496e-07 | 3.96e-07
x1 = 0.95 | 5.016e-07 | 4.443e-07 | 3.909e-07

CCCCCC [hexane] + CC(C)OC(C)C
[2], x2 = 0
Conditions | kinematic viscosity [m2/s]
283.15 K | 5.125e-07
298.15 K | 4.493e-07
313.15 K | 4.039e-07

CCCCCC [hexane]
[1]
Conditions | kinematic viscosity [m2/s]
283.15 K | 5.125e-07
298.15 K | 4.493e-07
313.15 K | 4.039e-07

CCCCCCC [heptane]
[1]
Conditions | kinematic viscosity [m2/s]
283.15 K | 6.697e-07
298.15 K | 5.754e-07
313.15 K | 4.986e-07

CC(C)OC(C)C [diisopropyl ether] + CCC(C)CC
[2], x1 = 1
Conditions | kinematic viscosity [m2/s]
283.15 K | 4.959e-07
298.15 K | 4.392e-07
313.15 K | 3.861e-07

CCC(C)CC [3-methylpentane] + CC(C)OC(C)C
kinematic viscosity [m2/s], [2]
Conditions | 283.15 K | 298.15 K | 313.15 K
x2 = 0 | 4.928e-07 | 4.366e-07 | 3.881e-07
x2 = 0.0498 | 4.914e-07 | 4.364e-07 | 3.872e-07
x2 = 0.1011 | 4.903e-07 | 4.355e-07 | 3.861e-07
x2 = 0.201 | 4.886e-07 | 4.348e-07 | 3.847e-07
x2 = 0.3018 | 4.877e-07 | 4.342e-07 | 3.837e-07
x2 = 0.4014 | 4.871e-07 | 4.339e-07 | 3.83e-07
x2 = 0.501 | 4.876e-07 | 4.338e-07 | 3.827e-07
x2 = 0.5993 | 4.883e-07 | 4.344e-07 | 3.831e-07
x2 = 0.6973 | 4.897e-07 | 4.352e-07 | 3.833e-07
x2 = 0.8014 | 4.912e-07 | 4.366e-07 | 3.842e-07
x2 = 0.8997 | 4.934e-07 | 4.377e-07 | 3.849e-07
x2 = 0.9501 | 4.947e-07 | 4.385e-07 | 3.854e-07

COC(C)(C)C [2-methoxy-2-methylpropane]
[1]
Conditions | kinematic viscosity [m2/s]
283.15 K | 5.191e-07
298.15 K | 4.529e-07
313.15 K | 3.961e-07

CC(C)OC(C)C [diisopropyl ether]
[1]
Conditions | kinematic viscosity [m2/s]
283.15 K | 4.959e-07
298.15 K | 4.392e-07
313.15 K | 3.861e-07

— the NIST ThermoML archive (doi:10.1007/s10765-007-0346-0)
